Patent US10045532B2, “Synergistic herbicidal mixtures for glyphosate-resistant volunteer corn control” (Valent U.S.A., Corporation, priority 2015, dated 2018)
Counter-ions that a name gives are not always drawn.

Assays:
Format in all cases: in vivo
[1] = system: glyphosate-resistant corn variety P1690; test: Foliar spray of corn at V7 stage in outdoor replicated field plots, corn variety P1690 (Example 2, Table 2); conditions: for percent control of glyphosate-resistant corn, 9 DAT / percent control of glyphosate-resistant corn, 16 DAT: variety P1690
Text: (§1) Two varieties of corn were foliarly sprayed with mixtures of ethyl [3-[2-chloro-4-fluoro-5-(1-methyl-6-trifluoromethyl-2,4-dioxo-1,2,3,4-tetrahydropyrimidin-3-yl)phenoxy]-2-pyridyloxy]acetate and the potassium salt of glyphosate in outdoor replicated field plots. In addition, mixtures of ethyl [3-[2-chloro-4-fluoro-5-(1-methyl-6-trifluoromethyl-2,4-dioxo-1,2,3,4-tetrahydropyrimidin-3-yl)phenoxy]-2-pyridyloxy]acetate and glufosinate, and N,N′-dimethyl-4,4′-bipyridinium dichloride alone were foliarly sprayed. One corn variety was glyphosate-resistant and the other variety was both glyphosate and glufosinate resistant. The corn plants were at the V7 (plants with seven leaves with visible collars, about 30 to 40 inches tall) stage of development at the time of treatment. Roundup® PowerMax (available from Monsanto Company) was used as the source of the potassium salt of glyphosate. The adjuvant non-ionic surfactant was applied with ethyl [3-[2-chloro-4-fluoro-5-(1-methyl-6-trifluoromethyl-2,4-dioxo-1,2,3,4-tetrahydropyrimidin-3-yl)phenoxy]-2-pyridyloxy]acetate. The effects of the treatments were observed and recorded 9 and 16 days after the treatments (“9 DAT” and “16 DAT”, respectively).

[2] = system: glyphosate-resistant and glufosinate-resistant corn variety 765-30; test: Foliar spray of corn at V7 stage in outdoor replicated field plots, corn variety 765-30 (Example 2, Table 3); conditions: for percent control of glyphosate-resistant and glufosinate-resistant corn, 9 DAT / percent control of glyphosate-resistant and glufosinate-resistant corn, 16 DAT: variety 765-30
Text: as §1

[3] = system: volunteer glyphosate-resistant corn; test: Foliar spray of glyphosate-resistant corn at V4 stage in outdoor replicated field plots (Example 1)
Text: Glyphosate-resistant corn was foliarly sprayed with mixtures of ethyl [3-[2-chloro-4-fluoro-5-(1-methyl-6-trifluoromethyl-2,4-dioxo-1,2,3,4-tetrahydropyrimidin-3-yl)phenoxy]-2-pyridyloxy]acetate and the potassium salt of glyphosate in outdoor replicated field plots. The corn was at the V4 (plants with four leaves with visible collars, about 6 to 8 inches tall) stage of development at the time of treatment. Roundup® PowerMax (available from Monsanto Company) was used as the source of the potassium salt of glyphosate. The adjuvant crop oil concentrate was applied with ethyl [3-[2-chloro-4-fluoro-5-(1-methyl-6-trifluoromethyl-2,4-dioxo-1,2,3,4-tetrahydropyrimidin-3-yl)phenoxy]-2-pyridyloxy]acetate. The effects of the treatments were observed and recorded 9 and 23 days after the treatments (“9 DAT” and “23 DAT”, respectively).

[4] = Treatment 18, 840 g active/hectare
[5] = Treatment 2, 1054 g active/hectare
[6] = Treatment 8, 1260 g active/hectare
[7] = Treatment 3, 5.6 g active/hectare
[8] = Treatment 4, 10.1 g active/hectare
[9] = Treatment 5, 20.2 g active/hectare
[10] = Treatment 6, 30.3 g active/hectare
[11] = Treatment 7, 40.3 g active/hectare
[12] = Treatment 2, 1.25 g active/hectare
[13] = Treatment 3, 2.5 g active/hectare
[14] = Treatment 4, 5 g active/hectare
[15] = Treatment 5, 10 g active/hectare
[16] = Treatment 6, 20 g active/hectare
[17] = Treatment 7, 30 g active/hectare
[18] = Treatment 15, 500 g active/hectare

C[n+]1ccc(-c2cc[n+](C)cc2)cc1.[Cl-].[Cl-] [N,N′-dimethyl-4,4′-bipyridinium dichloride, reference compound]
percent control of glyphosate-resistant corn, 9 DAT [1, 4]: 84% | percent control of glyphosate-resistant corn, 16 DAT [1, 4]: 77.5% | percent control of glyphosate-resistant and glufosinate-resistant corn, 9 DAT [2, 4]: 81.3% | percent control of glyphosate-resistant and glufosinate-resistant corn, 16 DAT [2, 4]: 92.5%

O=C(O)CNCP(=O)(O)O [Glyphosate, potassium salt, reference compound]
percent control of volunteer glyphosate-resistant corn, 9 DAT [3, 5]: 0% | percent control of volunteer glyphosate-resistant corn, 23 DAT [3, 5]: 0% | activity against glyphosate-resistant corn when applied alone ([3]; applied alone, Table 1): no activity | percent control of glyphosate-resistant corn, 9 DAT [1, 6]: 0% | percent control of glyphosate-resistant corn, 16 DAT [1, 6]: 0% | activity against glyphosate-resistant corn when applied alone ([1]; applied alone, Table 2, variety P1690): no activity | percent control of glyphosate-resistant and glufosinate-resistant corn, 9 DAT [2, 6]: 0% | percent control of glyphosate-resistant and glufosinate-resistant corn, 16 DAT [2, 6]: 0% | activity against glyphosate-resistant corn when applied alone ([2]; applied alone, Table 3, variety 765-30): no activity

CCOC(=O)COc1ncccc1Oc1cc(-n2c(=O)cc(C(F)(F)F)n(C)c2=O)c(F)cc1Cl [ethyl [3-[2-chloro-4-fluoro-5-(1-methyl-6-trifluoromethyl-2,4-dioxo-1,2,3,4-tetrahydropyrimidin-3-yl)phenoxy]-2-pyridyloxy]acetate]
percent control of volunteer glyphosate-resistant corn, 9 DAT [3, 7]: 68.78% | percent control of volunteer glyphosate-resistant corn, 23 DAT [3, 7]: 6.7% | percent control of volunteer glyphosate-resistant corn, 9 DAT [3, 8]: 95.75% | percent control of volunteer glyphosate-resistant corn, 23 DAT [3, 8]: 87.74% | percent control of volunteer glyphosate-resistant corn, 9 DAT [3, 9]: 99.89% | percent control of volunteer glyphosate-resistant corn, 23 DAT [3, 9]: 99.89% | percent control of volunteer glyphosate-resistant corn, 9 DAT [3, 10]: 100% | percent control of volunteer glyphosate-resistant corn, 23 DAT [3, 10]: 100% | percent control of volunteer glyphosate-resistant corn, 9 DAT [3, 11]: 100% | percent control of volunteer glyphosate-resistant corn, 23 DAT [3, 11]: 100% | percent control of glyphosate-resistant corn, 9 DAT [1, 12]: 16.15% | percent control of glyphosate-resistant corn, 16 DAT [1, 12]: 25% | percent control of glyphosate-resistant corn, 9 DAT [1, 13]: 49.78% | percent control of glyphosate-resistant corn, 16 DAT [1, 13]: 55% | percent control of glyphosate-resistant corn, 9 DAT [1, 14]: 44.48% | percent control of glyphosate-resistant corn, 16 DAT [1, 14]: 40% | percent control of glyphosate-resistant corn, 9 DAT [1, 15]: 57.6% | percent control of glyphosate-resistant corn, 16 DAT [1, 15]: 42.5% | percent control of glyphosate-resistant corn, 9 DAT [1, 16]: 81.8% | percent control of glyphosate-resistant corn, 16 DAT [1, 16]: 100% | percent control of glyphosate-resistant corn, 9 DAT [1, 17]: 95% | percent control of glyphosate-resistant corn, 16 DAT [1, 17]: 100% | percent control of glyphosate-resistant and glufosinate-resistant corn, 9 DAT [2, 12]: 16.15% | percent control of glyphosate-resistant and glufosinate-resistant corn, 16 DAT [2, 12]: 25% | percent control of glyphosate-resistant and glufosinate-resistant corn, 9 DAT [2, 13]: 49.78% | percent control of glyphosate-resistant and glufosinate-resistant corn, 16 DAT [2, 13]: 52.5% | percent control of glyphosate-resistant and glufosinate-resistant corn, 9 DAT [2, 14]: 42.3% | percent control of glyphosate-resistant and glufosinate-resistant corn, 16 DAT [2, 14]: 40% | percent control of glyphosate-resistant and glufosinate-resistant corn, 9 DAT [2, 15]: 57.6% | percent control of glyphosate-resistant and glufosinate-resistant corn, 16 DAT [2, 15]: 42.5% | percent control of glyphosate-resistant and glufosinate-resistant corn, 9 DAT [2, 16]: 81.8% | percent control of glyphosate-resistant and glufosinate-resistant corn, 16 DAT [2, 16]: 91.3% | percent control of glyphosate-resistant and glufosinate-resistant corn, 9 DAT [2, 17]: 95% | percent control of glyphosate-resistant and glufosinate-resistant corn, 16 DAT [2, 17]: 100%

CP(=O)(O)CCC(N)C(=O)O (stereo not drawn) [Glufosinate, reference compound]
percent control of glyphosate-resistant corn, 9 DAT [1, 18]: 92.7% | percent control of glyphosate-resistant corn, 16 DAT [1, 18]: 100% | percent control of glyphosate-resistant and glufosinate-resistant corn, 9 DAT [2, 18]: 3.8% | percent control of glyphosate-resistant and glufosinate-resistant corn, 16 DAT [2, 18]: 0%
